{"source": "paper PMC5513037", "about": "“Examining the influence of specificity ligands and ATP-competitive ligands on the overall effectiveness of bivalent kinase inhibitors” (Proteome Science, 2017)", "assay_in_all_cases": "KAM-matrix competition in K562 lysate;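 for 0.001 uM KAM: median log10 fold change of treatment over DMSO control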;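 for 0.01 uM KAM: median log10 fold change of treatment over DMSO control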;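 for 0.1 uM KAM: median log10 fold change of treatment over DMSO control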;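 for 1 uM KAM: median log10 fold change of treatment over DMSO control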;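 for 10 uM KAM: median log10 fold change of treatment over DMSO control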", "format_in_all_cases": "binding", "key": {"MARK2": {"target": "T1, MARK2 (Homo sapiens, UniProt Q7KZI7)", "T1 construct": "endogenous in cells; host or cells: K562", "T1 sequence (Q7KZI7 whole entry)": "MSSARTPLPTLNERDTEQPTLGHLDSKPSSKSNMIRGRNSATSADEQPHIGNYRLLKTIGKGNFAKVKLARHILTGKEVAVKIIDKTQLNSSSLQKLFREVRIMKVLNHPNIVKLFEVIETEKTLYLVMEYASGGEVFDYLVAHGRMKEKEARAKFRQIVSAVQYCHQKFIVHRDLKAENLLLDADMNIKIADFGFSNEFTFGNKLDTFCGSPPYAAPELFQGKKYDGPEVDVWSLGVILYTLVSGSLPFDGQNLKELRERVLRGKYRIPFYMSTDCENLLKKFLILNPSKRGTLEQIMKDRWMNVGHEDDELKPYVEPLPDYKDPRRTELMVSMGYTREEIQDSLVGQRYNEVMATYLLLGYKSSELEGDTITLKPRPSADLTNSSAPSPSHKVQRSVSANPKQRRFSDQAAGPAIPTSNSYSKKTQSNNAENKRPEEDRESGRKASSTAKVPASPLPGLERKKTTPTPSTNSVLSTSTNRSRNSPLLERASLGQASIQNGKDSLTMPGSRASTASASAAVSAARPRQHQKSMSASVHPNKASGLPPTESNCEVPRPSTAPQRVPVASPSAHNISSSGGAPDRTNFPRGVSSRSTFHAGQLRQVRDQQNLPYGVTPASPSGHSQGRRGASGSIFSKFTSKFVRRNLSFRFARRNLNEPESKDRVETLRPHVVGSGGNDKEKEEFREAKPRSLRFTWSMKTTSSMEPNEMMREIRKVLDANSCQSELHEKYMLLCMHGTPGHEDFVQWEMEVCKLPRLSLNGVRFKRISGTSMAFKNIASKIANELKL", "description": "(§1) Supplement 12953_2017_125_MOESM1_ESM.zip/MS_Supp Info.xlsx, sheet \"KAM\" | column: 10 uM KAM; 1 uM KAM; 0.1 uM KAM; 0.01 uM KAM; 0.001 uM KAM; RB50"}, "MASTL": {"target": "T2, MASTL (Homo sapiens, UniProt Q96GX5)", "T2 construct": "endogenous in cells; host or cells: K562 cell lysate", "T2 sequence (Q96GX5 1-879)": "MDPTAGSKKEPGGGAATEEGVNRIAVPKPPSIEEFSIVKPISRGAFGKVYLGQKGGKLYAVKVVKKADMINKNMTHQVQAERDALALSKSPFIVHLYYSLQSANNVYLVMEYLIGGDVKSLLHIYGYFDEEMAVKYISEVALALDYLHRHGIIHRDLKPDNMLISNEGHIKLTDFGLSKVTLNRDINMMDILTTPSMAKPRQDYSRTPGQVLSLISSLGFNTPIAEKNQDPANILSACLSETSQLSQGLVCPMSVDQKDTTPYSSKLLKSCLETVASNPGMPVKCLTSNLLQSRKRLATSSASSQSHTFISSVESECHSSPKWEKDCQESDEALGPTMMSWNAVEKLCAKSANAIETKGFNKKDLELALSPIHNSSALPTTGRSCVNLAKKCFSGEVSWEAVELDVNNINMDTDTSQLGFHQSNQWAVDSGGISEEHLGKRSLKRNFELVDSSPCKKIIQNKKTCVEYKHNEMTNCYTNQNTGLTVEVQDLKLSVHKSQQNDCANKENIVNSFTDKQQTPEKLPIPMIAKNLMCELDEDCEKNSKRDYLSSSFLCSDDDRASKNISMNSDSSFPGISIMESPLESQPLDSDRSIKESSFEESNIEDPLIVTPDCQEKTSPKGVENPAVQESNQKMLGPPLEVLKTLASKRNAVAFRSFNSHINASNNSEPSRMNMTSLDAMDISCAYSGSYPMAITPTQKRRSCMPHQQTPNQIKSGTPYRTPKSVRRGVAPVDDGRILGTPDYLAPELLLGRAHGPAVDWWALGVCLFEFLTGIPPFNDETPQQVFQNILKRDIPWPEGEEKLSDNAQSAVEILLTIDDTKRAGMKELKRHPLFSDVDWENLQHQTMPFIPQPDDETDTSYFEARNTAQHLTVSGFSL", "description": "as §1"}, "NTRK1": {"target": "T3, NTRK1 (Homo sapiens, UniProt P04629)", "T3 construct": "endogenous in cells; host or cells: K562", "T3 sequence (P04629 33-796)": "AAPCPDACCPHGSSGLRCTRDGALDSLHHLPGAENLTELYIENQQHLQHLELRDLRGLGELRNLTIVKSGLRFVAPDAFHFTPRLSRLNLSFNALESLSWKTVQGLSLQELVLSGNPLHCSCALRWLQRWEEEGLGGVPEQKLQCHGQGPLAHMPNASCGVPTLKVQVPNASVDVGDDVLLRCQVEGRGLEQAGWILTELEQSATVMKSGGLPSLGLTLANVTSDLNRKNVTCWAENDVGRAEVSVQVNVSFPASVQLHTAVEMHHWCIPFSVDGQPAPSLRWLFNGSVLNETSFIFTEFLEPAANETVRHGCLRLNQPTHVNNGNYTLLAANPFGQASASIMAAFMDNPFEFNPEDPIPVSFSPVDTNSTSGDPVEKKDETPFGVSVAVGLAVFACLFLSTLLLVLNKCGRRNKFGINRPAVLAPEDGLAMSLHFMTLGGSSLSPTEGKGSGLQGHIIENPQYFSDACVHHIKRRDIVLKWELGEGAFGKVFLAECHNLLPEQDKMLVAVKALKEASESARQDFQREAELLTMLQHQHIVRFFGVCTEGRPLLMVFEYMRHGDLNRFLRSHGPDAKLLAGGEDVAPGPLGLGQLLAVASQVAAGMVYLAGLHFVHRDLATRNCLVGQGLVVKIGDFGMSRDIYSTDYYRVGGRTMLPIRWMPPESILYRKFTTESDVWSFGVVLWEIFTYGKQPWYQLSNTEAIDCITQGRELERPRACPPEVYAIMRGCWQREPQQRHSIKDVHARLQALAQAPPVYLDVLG", "description": "as §1"}, "RIPK1": {"target": "T4, RIPK1 (Homo sapiens, UniProt Q13546)", "T4 construct": "endogenous in cells; host or cells: K562", "T4 sequence (Q13546 1-671)": "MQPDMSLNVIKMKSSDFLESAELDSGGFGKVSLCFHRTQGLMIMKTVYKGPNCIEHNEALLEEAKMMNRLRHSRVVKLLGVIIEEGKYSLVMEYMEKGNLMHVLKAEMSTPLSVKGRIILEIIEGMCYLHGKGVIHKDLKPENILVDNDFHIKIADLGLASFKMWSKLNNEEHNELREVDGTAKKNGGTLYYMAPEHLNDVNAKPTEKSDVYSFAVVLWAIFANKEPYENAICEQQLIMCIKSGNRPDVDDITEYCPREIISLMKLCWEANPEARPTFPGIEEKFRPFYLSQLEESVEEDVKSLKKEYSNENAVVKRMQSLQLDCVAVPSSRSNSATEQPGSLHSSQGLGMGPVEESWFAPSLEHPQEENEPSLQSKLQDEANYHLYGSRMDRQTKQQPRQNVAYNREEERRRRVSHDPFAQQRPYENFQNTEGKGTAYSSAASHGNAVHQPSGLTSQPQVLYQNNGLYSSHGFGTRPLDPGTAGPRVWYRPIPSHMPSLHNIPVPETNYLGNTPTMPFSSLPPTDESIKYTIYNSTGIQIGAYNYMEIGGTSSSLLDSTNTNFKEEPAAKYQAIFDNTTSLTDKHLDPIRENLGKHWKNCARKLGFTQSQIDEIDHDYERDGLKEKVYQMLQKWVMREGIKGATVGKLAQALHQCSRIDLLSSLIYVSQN", "description": "as §1"}, "ROR2": {"target": "T5, ROR2 (Homo sapiens, UniProt Q01974)", "T5 construct": "endogenous in cells; host or cells: K562", "T5 sequence (Q01974 34-943)": "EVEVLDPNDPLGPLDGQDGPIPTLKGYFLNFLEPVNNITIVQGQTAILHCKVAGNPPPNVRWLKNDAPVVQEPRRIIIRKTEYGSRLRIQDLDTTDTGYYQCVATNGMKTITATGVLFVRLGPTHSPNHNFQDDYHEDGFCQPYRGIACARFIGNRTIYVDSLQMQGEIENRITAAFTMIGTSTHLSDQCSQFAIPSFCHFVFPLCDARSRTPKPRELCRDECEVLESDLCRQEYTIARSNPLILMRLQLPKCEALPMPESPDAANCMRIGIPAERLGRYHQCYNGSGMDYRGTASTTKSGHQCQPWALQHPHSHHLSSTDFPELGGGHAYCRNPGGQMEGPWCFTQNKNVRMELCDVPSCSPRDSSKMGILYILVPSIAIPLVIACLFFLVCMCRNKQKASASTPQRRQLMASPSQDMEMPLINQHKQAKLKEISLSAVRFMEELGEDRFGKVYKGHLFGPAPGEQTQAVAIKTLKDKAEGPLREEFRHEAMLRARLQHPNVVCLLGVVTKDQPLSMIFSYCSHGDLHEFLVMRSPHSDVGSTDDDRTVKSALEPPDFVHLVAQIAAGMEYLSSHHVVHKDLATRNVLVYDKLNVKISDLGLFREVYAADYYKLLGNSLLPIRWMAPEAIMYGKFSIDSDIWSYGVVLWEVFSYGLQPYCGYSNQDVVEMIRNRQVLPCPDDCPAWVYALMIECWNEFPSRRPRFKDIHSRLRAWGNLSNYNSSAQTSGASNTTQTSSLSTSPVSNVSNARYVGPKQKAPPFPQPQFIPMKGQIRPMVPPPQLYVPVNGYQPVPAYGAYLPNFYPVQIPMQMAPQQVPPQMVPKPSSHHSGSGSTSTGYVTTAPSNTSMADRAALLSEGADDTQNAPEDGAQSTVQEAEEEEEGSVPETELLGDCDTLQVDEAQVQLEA", "description": "as §1"}, "RPS6KA3": {"target": "T6, RPS6KA3 (Homo sapiens, UniProt P51812)", "T6 construct": "endogenous in cells; host or cells: K562", "T6 sequence (P51812 whole entry)": "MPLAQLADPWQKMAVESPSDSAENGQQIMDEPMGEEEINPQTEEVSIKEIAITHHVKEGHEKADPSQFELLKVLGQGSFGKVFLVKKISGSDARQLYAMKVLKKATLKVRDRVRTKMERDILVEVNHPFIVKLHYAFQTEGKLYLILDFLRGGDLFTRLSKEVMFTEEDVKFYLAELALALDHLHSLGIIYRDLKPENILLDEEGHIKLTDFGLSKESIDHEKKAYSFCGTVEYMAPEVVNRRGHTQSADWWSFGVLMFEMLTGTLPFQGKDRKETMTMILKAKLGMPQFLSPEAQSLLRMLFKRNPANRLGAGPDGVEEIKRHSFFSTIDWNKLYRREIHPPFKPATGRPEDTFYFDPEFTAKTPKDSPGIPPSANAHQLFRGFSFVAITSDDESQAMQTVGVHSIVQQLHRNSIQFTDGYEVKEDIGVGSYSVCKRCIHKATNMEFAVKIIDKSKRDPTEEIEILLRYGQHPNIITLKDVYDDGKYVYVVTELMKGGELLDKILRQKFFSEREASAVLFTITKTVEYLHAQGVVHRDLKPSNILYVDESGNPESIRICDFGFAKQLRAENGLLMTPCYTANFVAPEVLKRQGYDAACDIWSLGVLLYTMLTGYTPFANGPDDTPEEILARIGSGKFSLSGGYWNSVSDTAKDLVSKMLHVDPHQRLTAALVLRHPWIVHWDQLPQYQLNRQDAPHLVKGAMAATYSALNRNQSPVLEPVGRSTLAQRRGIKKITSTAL", "description": "as §1"}, "STK10": {"target": "T7, STK10 (Homo sapiens, UniProt O94804)", "T7 construct": "endogenous in cells; host or cells: K562 cell lysate", "T7 sequence (O94804 whole entry)": "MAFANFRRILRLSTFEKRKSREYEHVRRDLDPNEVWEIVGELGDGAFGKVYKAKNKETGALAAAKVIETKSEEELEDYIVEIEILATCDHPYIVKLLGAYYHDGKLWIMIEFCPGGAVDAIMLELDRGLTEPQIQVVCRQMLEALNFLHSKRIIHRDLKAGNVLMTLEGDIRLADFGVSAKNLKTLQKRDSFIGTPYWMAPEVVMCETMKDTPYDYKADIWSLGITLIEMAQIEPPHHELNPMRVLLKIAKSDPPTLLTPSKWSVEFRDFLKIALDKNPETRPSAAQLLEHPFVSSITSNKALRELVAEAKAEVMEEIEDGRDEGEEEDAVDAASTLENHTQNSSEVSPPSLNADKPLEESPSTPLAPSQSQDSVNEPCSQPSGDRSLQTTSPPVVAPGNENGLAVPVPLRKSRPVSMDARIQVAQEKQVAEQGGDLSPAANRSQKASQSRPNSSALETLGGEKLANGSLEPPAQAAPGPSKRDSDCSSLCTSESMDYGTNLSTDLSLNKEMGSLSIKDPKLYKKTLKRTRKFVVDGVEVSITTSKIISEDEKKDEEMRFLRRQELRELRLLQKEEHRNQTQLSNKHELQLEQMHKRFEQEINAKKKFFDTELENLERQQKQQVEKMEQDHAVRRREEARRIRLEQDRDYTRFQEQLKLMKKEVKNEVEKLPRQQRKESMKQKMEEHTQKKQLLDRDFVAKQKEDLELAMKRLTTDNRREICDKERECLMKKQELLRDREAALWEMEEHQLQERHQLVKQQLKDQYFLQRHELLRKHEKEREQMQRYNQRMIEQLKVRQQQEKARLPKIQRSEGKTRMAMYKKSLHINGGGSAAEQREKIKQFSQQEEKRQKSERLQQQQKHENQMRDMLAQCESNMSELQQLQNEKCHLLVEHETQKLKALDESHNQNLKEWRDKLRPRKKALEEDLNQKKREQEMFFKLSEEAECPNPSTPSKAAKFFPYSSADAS", "description": "as §1"}, "[1]": {"conditions": "read-out: RB50 (the source's name)"}, "[2]": {"conditions": "KAM 0.001-10 uM, read-out: RB50 (the source's name)"}}, "data": [{"molecule": "N#CCc1ccc(Nc2nc(NCCCN)cc(Nc3cc(C4CC4)[nH]n3)n2)cc1", "note": "[KAM]", "values": [{"measurement": "median Log10 fold change", "setting": "MARK2; 0.001 uM KAM", "result": -0.02617}, {"measurement": "median Log10 fold change", "setting": "MARK2; 0.01 uM KAM", "result": -0.01928}, {"measurement": "median Log10 fold change", "setting": "MARK2; 0.1 uM KAM", "result": -0.2168}, {"measurement": "median Log10 fold change", "setting": "MARK2; 1 uM KAM", "result": -0.4361}, {"measurement": "median Log10 fold change", "setting": "MARK2; 10 uM KAM", "result": -0.5469}, {"measurement": "IC50", "setting": "MARK2; [1]", "result": 0.336, "unit": "µM"}, {"measurement": "median Log10 fold change", "setting": "MASTL; 0.001 uM KAM", "result": 0.009734}, {"measurement": "median Log10 fold change", "setting": "MASTL; 0.01 uM KAM", "result": -0.004391}, {"measurement": "median Log10 fold change", "setting": "MASTL; 0.1 uM KAM", "result": -0.2197}, {"measurement": "median Log10 fold change", "setting": "MASTL; 1 uM KAM", "result": -0.3171}, {"measurement": "median Log10 fold change", "setting": "MASTL; 10 uM KAM", "result": -0.3645}, {"measurement": "IC50", "setting": "MASTL; [1]", "result": 0.948, "unit": "µM"}, {"measurement": "median Log10 fold change", "setting": "NTRK1; 0.001 uM KAM", "result": -0.002125}, {"measurement": "median Log10 fold change", "setting": "NTRK1; 0.01 uM KAM", "result": -0.003481}, {"measurement": "median Log10 fold change", "setting": "NTRK1; 0.1 uM KAM", "result": -0.123}, {"measurement": "median Log10 fold change", "setting": "NTRK1; 1 uM KAM", "result": -0.3463}, {"measurement": "median Log10 fold change", "setting": "NTRK1; 10 uM KAM", "result": -0.5086}, {"measurement": "IC50", "setting": "NTRK1; [1]", "result": 0.869, "unit": "µM"}, {"measurement": "IC50", "setting": "RIPK1; [2]", "result": "> 10", "unit": "µM"}, {"measurement": "0.001 uM KAM", "setting": "RIPK1; relative to 0 uM KAM = 0", "result": -0.02132}, {"measurement": "0.01 uM KAM", "setting": "RIPK1; relative to 0 uM KAM = 0", "result": 0.0003889}, {"measurement": "0.1 uM KAM", "setting": "RIPK1; relative to 0 uM KAM = 0", "result": -0.08047}, {"measurement": "1 uM KAM", "setting": "RIPK1; relative to 0 uM KAM = 0", "result": -0.1016}, {"measurement": "10 uM KAM", "setting": "RIPK1; relative to 0 uM KAM = 0", "result": -0.1828}, {"measurement": "IC50", "setting": "ROR2; [2]", "result": "> 10", "unit": "µM"}, {"measurement": "0.001 uM KAM", "setting": "ROR2; relative to 0 uM KAM = 0", "result": -0.05631}, {"measurement": "0.01 uM KAM", "setting": "ROR2; relative to 0 uM KAM = 0", "result": -0.02329}, {"measurement": "0.1 uM KAM", "setting": "ROR2; relative to 0 uM KAM = 0", "result": -0.008785}, {"measurement": "1 uM KAM", "setting": "ROR2; relative to 0 uM KAM = 0", "result": -0.03493}, {"measurement": "10 uM KAM", "setting": "ROR2; relative to 0 uM KAM = 0", "result": 0.2477}, {"measurement": "IC50", "setting": "RPS6KA3; [2]", "result": "> 10", "unit": "µM"}, {"measurement": "0.001 uM KAM", "setting": "RPS6KA3; relative to 0 uM KAM = 0", "result": -0.01612}, {"measurement": "0.01 uM KAM", "setting": "RPS6KA3; relative to 0 uM KAM = 0", "result": -0.01929}, {"measurement": "0.1 uM KAM", "setting": "RPS6KA3; relative to 0 uM KAM = 0", "result": -0.05841}, {"measurement": "1 uM KAM", "setting": "RPS6KA3; relative to 0 uM KAM = 0", "result": -0.1372}, {"measurement": "10 uM KAM", "setting": "RPS6KA3; relative to 0 uM KAM = 0", "result": -0.2816}, {"measurement": "median Log10 fold change", "setting": "STK10; 0.001 uM KAM", "result": -0.02902}, {"measurement": "median Log10 fold change", "setting": "STK10; 0.01 uM KAM", "result": -0.03253}, {"measurement": "median Log10 fold change", "setting": "STK10; 0.1 uM KAM", "result": -0.2078}, {"measurement": "median Log10 fold change", "setting": "STK10; 1 uM KAM", "result": -0.4135}, {"measurement": "median Log10 fold change", "setting": "STK10; 10 uM KAM", "result": -0.5057}, {"measurement": "IC50", "setting": "STK10; [1]", "result": 0.404, "unit": "µM"}]}]}
